The record followed here is paper PMC6857671 (Chemical Science, 2019).

For this test, the system named is HeLa cells. Kind of test: Confocal microscopic analysis of cellular location of DOX and 36. Conditions: 10 µM, 3 h, 37 °C, fluorescence confocal microscopy. The test is classed as cell-based.

Molecules are shown by their SMILES.

As to `COc1cccc2c1C(=O)c1c(O)c3c(c(O)c1C2=O)C[C@@](O)(C(=O)CO)C[C@@H]3O[C@H]1C[C@H](N)[C@H](O)[C@H](C)O1` [DOX, Doxorubicin], the “cellular location of DOX fluorescence, no irradiation” value is given as “efficiently transported to the nucleus”.
